In ChEMBL document CHEMBL4831501, “Discovery of a potent and selective inhibitor of histone lysine demethylase KDM4D” (Eur J Med Chem, 2021):

Legend:
[1] = molecular target: T1, Lysine-specific demethylase 4D (Homo sapiens) (UniProt Q6B0I6); assay: Inhibition of human KDM4D expressed in Escherichia coli BL21 (DE3) at 1 uM using biotinylated H3-derived peptide and 2-OG as substrate preincubated for 15 mins followed by substrate addition and measured after 1 hr by AlphaLISA assay; conditions: time 75.0 min
T1 sequence (whole entry): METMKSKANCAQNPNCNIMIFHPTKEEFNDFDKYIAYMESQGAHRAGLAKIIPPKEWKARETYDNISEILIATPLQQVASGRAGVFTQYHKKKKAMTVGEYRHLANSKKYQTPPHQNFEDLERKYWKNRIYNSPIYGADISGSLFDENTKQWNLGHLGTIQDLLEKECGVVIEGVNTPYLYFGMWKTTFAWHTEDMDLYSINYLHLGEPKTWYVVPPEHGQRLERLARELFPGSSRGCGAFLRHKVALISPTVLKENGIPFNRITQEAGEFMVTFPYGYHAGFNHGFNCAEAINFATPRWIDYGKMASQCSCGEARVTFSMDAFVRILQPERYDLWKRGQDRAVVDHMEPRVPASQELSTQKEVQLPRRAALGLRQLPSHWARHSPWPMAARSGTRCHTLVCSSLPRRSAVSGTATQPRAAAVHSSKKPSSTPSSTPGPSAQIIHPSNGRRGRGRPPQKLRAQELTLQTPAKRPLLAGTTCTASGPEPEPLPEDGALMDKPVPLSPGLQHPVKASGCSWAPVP

[2] = molecular target: T2, Lysine-specific demethylase 4D (Homo sapiens, UniProt Q6B0I6); assay: Inhibition of human KDM4D expressed in Escherichia coli BL21 (DE3) using biotinylated H3-derived peptide and 2-OG as substrate preincubated for 15 mins followed by substrate addition and measured after 1 hr by AlphaLISA assay
T2 sequence (Q6B0I6 whole entry): T1 sequence (whole entry)

| SMILES | inhibition [1] [%] | IC50 [2] [nM] |
| --- | --- | --- |
| COc1cc(O)c(C(c2ccncc2)N2CC[C@@H](NC(=O)OC(C)(C)C)C2)cc1F (some centres undefined) | 12.9 |  |
| CC(C)(C)OC(=O)N[C@@H]1CCN(C(c2ccc(-c3ccncc3)cn2)c2cc3c(cc2O)OCO3)C1 (some centres undefined) | 96.6 | 126 |
| CC(C)(C)NC(=S)N[C@@H]1CCN(C(c2ccncc2)c2cc3c(cc2O)OCO3)C1 (some centres undefined) | 96.4 | 171 |
| COC(=O)c1cccc(C(c2cc3c(cc2O)OCO3)N2CC[C@@H](NC(=O)OC(C)(C)C)C2)c1 (some centres undefined) | 98.3 | 499 |
| COc1cccc(C(=O)N[C@@H]2CCN(C(c3ccncc3)c3cc4c(cc3O)OCO4)C2)c1 (some centres undefined) | 99.4 | 546 |
| CN(C(=O)OC(C)(C)C)[C@@H]1CCN(C(c2ccncc2)c2cc3c(cc2O)OCO3)C1 (some centres undefined) | 87.6 | 642 |
| CC(C)(C)OC(=O)N[C@@H]1CCN(C(c2cccc(C#N)c2)c2cc3c(cc2O)OCO3)C1 (some centres undefined) | 96.5 | 482 |
| O=C(O[C@@H]1CCN(C(c2ccncc2)c2cc3c(cc2O)OCO3)C1)C1CC1 (some centres undefined) | 98.2 | 586 |
| CC(C)(C)OC(=O)N[C@@H]1CCN(C(c2ccncc2)c2ccccc2O)C1 (some centres undefined) | 1.9 |  |
| CC(C)(C)OC(=O)N[C@@H]1CCN(C(c2ccc(-c3ccccn3)cc2)c2cc3c(cc2O)OCO3)C1 (some centres undefined) | 99.8 | 145 |
| CC(C)(C)OC(=O)N[C@@H]1CCN(C(c2ccncc2)c2cc3c(cc2O)OC(C)(C)O3)C1 (some centres undefined) | 76 | 609 |
| O=S(=O)(N[C@@H]1CCN(C(c2ccncc2)c2cc3c(cc2O)OCO3)C1)C1CC1 (some centres undefined) | 99.3 | 577 |
| CC(C)(C)OC(=O)N[C@@H]1CCN(C(c2ccncc2)c2cc3c(cc2O)OCCO3)C1 (some centres undefined) | 2.78 |  |
| CC(C)(C)OC(=O)N[C@@H]1CCN(C(c2ccc(-n3cccc3)cc2)c2cc3c(cc2O)OCO3)C1 (some centres undefined) | 95.6 | 444 |
| CCOc1ccc(C(=O)N[C@@H]2CCN(C(c3ccncc3)c3cc4c(cc3O)OCO4)C2)cc1 (some centres undefined) | 97.3 | 170 |
| CC(C)(C)C(=O)N[C@@H]1CCN(C(c2ccncc2)c2cc3c(cc2O)OCO3)C1 (some centres undefined) | 98.7 | 664 |
| COc1ccc(OC)c(C(c2ccncc2)N2CC[C@@H](NC(=O)OC(C)(C)C)C2)c1O (some centres undefined) | 97.5 | 212 |
| Cc1nccn1-c1ccc(C(c2cc3c(cc2O)OCO3)N2CC[C@@H](NC(=O)OC(C)(C)C)C2)cc1 (some centres undefined) | 99.8 | 87 |
| CC(C)(C)OC(=O)N[C@@H]1CCN(C(c2cc3c(cc2O)OCO3)c2ccc(F)cc2Cl)C1 (some centres undefined) | 98.5 | 117 |
| O=C(N[C@@H]1CCN(C(c2ccncc2)c2cc3c(cc2O)OCO3)C1)c1ccccc1 (some centres undefined) | 99.9 | 536 |

| SMILES | inhibition [1] [%] | IC50 [2] [nM] |
| --- | --- | --- |
| CC(C)(C)OC(=O)N[C@@H]1CCN(C(c2cccc(-c3cccnc3)c2)c2cc3c(cc2O)OCO3)C1 (some centres undefined) | 96.2 | 184 |
| CC(C)(C)OC(=O)N[C@@H]1CCN(C(c2cccc(-n3ccnc3)c2)c2cc3c(cc2O)OCO3)C1 (some centres undefined) | 99.7 | 109 |
| COc1ccc(C(c2ccncc2)N2CC[C@@H](NC(=O)OC(C)(C)C)C2)c(O)c1 (some centres undefined) | 44.3 |  |
| CC(C)(C)OC(=O)N[C@@H]1CCN(C(c2ccncc2)c2cc3c(cc2O)OC(F)(F)O3)C1 (some centres undefined) | 0.88 |  |
| CC(C)(C)OC(=O)N[C@@H]1CCN(C(c2ccc(-n3cncn3)cc2)c2cc3c(cc2O)OCO3)C1 (some centres undefined) | 99.7 | 56 |
| O=C(NC[C@@H]1CCN(C(c2ccncc2)c2cc3c(cc2O)OCO3)C1)C1CC1 (some centres undefined) | 93.6 | 193 |
| O=C(N[C@@H]1CCN(C(c2ccncc2)c2cc3c(cc2O)OCO3)C1)c1ccccc1Cl (some centres undefined) | 94.2 | 187 |
| CC(C)(C)OC(=O)N[C@@H]1CCN(C(c2cccc(-c3ccccn3)c2)c2cc3c(cc2O)OCO3)C1 (some centres undefined) | 91.4 | 285 |
| CC(C)(C)NC(=O)N[C@@H]1CCN(C(c2ccncc2)c2cc3c(cc2O)OCO3)C1 (some centres undefined) | 97.2 | 188 |
| CC(C)(C)OC(=O)N[C@@H]1CCN(C(c2cnccn2)c2cc3c(cc2O)OCO3)C1 (some centres undefined) | 99 | 552 |
| O=C(N[C@@H]1CCN(C(c2ccncc2)c2cc3c(cc2O)OCO3)C1)C1CC1 (some centres undefined) | 99.8 | 155 |
| CC(C)(C)OC(=O)N[C@@H]1CCN(C(c2ccc(-c3ccncc3)nc2)c2cc3c(cc2O)OCO3)C1 (some centres undefined) | 97.1 | 165 |
| CC(C)(C)OC(=O)N[C@@H]1CCN(C(c2ccncc2)c2ccc(C(C)(C)C)cc2O)C1 (some centres undefined) | -8.59 |  |
| CC(C)(C)OC(=O)N[C@@H]1CCN(C(c2ccc(C#N)c(F)c2)c2cc3c(cc2O)OCO3)C1 (some centres undefined) | 98.7 | 382 |
| CC(C)(C)OC(=O)N[C@@H]1CCN(C(c2ccncc2)c2cc3c(cc2O)OCO3)C1 (some centres undefined) | 97.2 | 135 |
| Cn1nccc1C(c1cc2c(cc1O)OCO2)N1CC[C@@H](NC(=O)OC(C)(C)C)C1 (some centres undefined) | 94.6 | 509 |
| COc1cc(C#N)ccc1C(c1cc2c(cc1O)OCO2)N1CC[C@@H](NC(=O)OC(C)(C)C)C1 (some centres undefined) | 98.1 | 368 |
| CC(C)(C)OC(=O)N[C@@H]1CCN(C(c2ccncc2)c2cc3c(cc2O)CCC3)C1 (some centres undefined) | -6.01 |  |
| CC(C)(C)OC(=O)N[C@@H]1CCN(C(c2cc3c(cc2O)OCO3)c2ccc(Cl)cc2F)C1 (some centres undefined) | 99.3 | 111 |
| CC(C)C(=O)N[C@@H]1CCN(C(c2ccncc2)c2cc3c(cc2O)OCO3)C1 (some centres undefined) | 96.5 | 220 |

| SMILES | inhibition [1] [%] | IC50 [2] [nM] |
| --- | --- | --- |
| CC(=O)N[C@@H]1CCN(C(c2ccncc2)c2cc3c(cc2O)OCO3)C1 (some centres undefined) | 77.5 | 519 |
| COc1ccccc1C(=O)N[C@@H]1CCN(C(c2ccncc2)c2cc3c(cc2O)OCO3)C1 (some centres undefined) | 99.1 | 399 |
| CC(C)(C)OC(=O)N[C@@H]1CCN(C(c2cc3c(cc2O)OCO3)c2ccc(C#N)cc2F)C1 (some centres undefined) | 99.4 | 330 |
| O=C(N[C@H]1CCN(C(c2ccncc2)c2cc3c(cc2O)OCO3)C1)C1CC1 (some centres undefined) | 96.6 | 892 |
| CC(C)(C)OC(=O)N[C@@H]1CCN(Cc2cc3c(cc2O)OCO3)C1 | -4.8 |  |
| COc1ccc(O)c(C(c2ccncc2)N2CC[C@@H](NC(=O)OC(C)(C)C)C2)c1 (some centres undefined) | -3.27 |  |
| CC(C)(C)OC(=O)N[C@@H]1CCN(C(c2cc3c(cc2O)OCO3)C2CCCCC2)C1 (some centres undefined) | -7.31 |  |
| O=C(N[C@@H]1CCN(C(c2ccncc2)c2cc3c(cc2O)OCO3)C1)c1cccc(F)c1 (some centres undefined) | 99.7 | 351 |
| O=C(N[C@@H]1CCN(C(c2ccncc2)c2cc3c(cc2O)OCO3)C1)c1ccccc1F (some centres undefined) | 96.6 | 437 |
| N[C@@H]1CCN(C(c2ccncc2)c2cc3c(cc2O)OCO3)C1 (some centres undefined) | 33.6 | 1750 |
| CC(C)(C)OC(=O)N[C@@H]1CCN(C(c2cc3c(cc2O)OCO3)c2ccnc3ccccc23)C1 (some centres undefined) | 99.5 | 100 |
| O=C(N[C@@H]1CCN(C(c2ccncc2)c2cc3c(cc2O)OCO3)C1)C1CCCCC1 (some centres undefined) | 99.2 | 528 |
| CC(C)(C)OC(=O)N[C@@H]1CCN(C(c2cc3c(cc2O)OCO3)c2ccc(F)cc2F)C1 (some centres undefined) | 97.3 | 173 |
| CC(C)(C)OC(=O)N[C@@H]1CCN(C(c2cncnc2)c2cc3c(cc2O)OCO3)C1 (some centres undefined) | 64.4 |  |
| COC(=O)c1ccc(C(c2cc3c(cc2O)OCO3)N2CC[C@@H](NC(=O)OC(C)(C)C)C2)cc1 (some centres undefined) | 99.4 | 445 |
| COc1cc(O)c(C(c2ccncc2)N2CC[C@@H](NC(=O)OC(C)(C)C)C2)cc1OC (some centres undefined) | 98.6 | 632 |
| CCOc1ccccc1C(=O)N[C@@H]1CCN(C(c2ccncc2)c2cc3c(cc2O)OCO3)C1 (some centres undefined) | 94.4 | 342 |
| CC(C)(C)OC(=O)N[C@@H]1CCN(C(c2ccc(-c3ccccc3)cc2)c2cc3c(cc2O)OCO3)C1 (some centres undefined) | 10.6 |  |
